{"source": "patent EP2975033A1", "about": "“Improved cysteine-protease inhibitors” (Universitat Jaume I, priority 2014, dated 2016)", "key": {"[1]": {"biological_target": "T1, Cathepsin B (human) (Homo sapiens, UniProt P07858)", "T1 construct": "Cathepsin B (human liver) Calbiochem; purchased Calbiochem; host or cells: human liver (tissue-derived)", "test": "Protease assay, fluorogenic substrate Z-Phe-Arg-AMC: Cathepsin B", "format": "biochemical", "settings": "CB=CathepsinB", "description": "(§1) 2.1.1. Protease Assays as shown in tables 1 and 2: Cathepsin L (human), Cathepsin B (human), Rhodesain (Trypanosoma brucei rhodesiense), Falcipain 2 (Plasmodium falciparum)\n(§2) Enzyme assays used to identify inhibitors of the target cysteine proteases. The effect is detected measuring fluorescence increase due to hydrolysis of fluorogenic substrates by the target enzymes in absence and presence of potential inhibitors.\n(§3) • a. Proteins (enzymes): • Cathepsin L (human liver) Calbiochem • Cathepsin B (human liver) Calbiochem • Rhodesain: recombinantly expressed according to ref.: Caffrey, C. R.; Hansell, E.; Lucas, K. D.; Brinen, L. S.; Hernandez, A. A.; Cheng, J.; Gwaltney, S. L., II; Roush, W. R.; Stierhof, Y. D.; Bogyo, M.; Steverding, D.; McKerrow, J. H. Active site mapping, biochemical properties and subcellular localization of rhodesain, the major cysteine protease of Trypanosoma • Falcipain 2: recombinantly expressed according to ref.: Pandey, K. C.; Wang, S. X.; Sijwali, P. S.; Lau, A. L.; McKerrow, J. H.; Rosenthal, P. J. The Plasmodium falciparum cysteine protease falcipain-2 captures its substrate, hemoglobin, via a unique motif. Proc. Natl. Acad. Sci. U.S.A. 2005, 102, 9138-9143. • b. Buffers: • Cathepsin B: 50 mM Tris-Puffer pH 6.5 mit 2 mM DTT, 5 mM EDTA, 200 mM NaCl, 0.005% Brij35 • Cathepsin L: 50 mM Tris-Puffer pH 6.5 mit 2 mM DTT, 5 mM EDTA, 200 mM NaCl, 0.005% Brij35 • Rhodesain: 50 mM Acetat-Puffer pH 5.5 mit 5 mM DTT, 5 mM EDTA, 200 mM NaCl, 0.005% Brij35 • Falcipain 2: 50 mM Acetat-Puffer pH 5.5 mit 5 mM DTT, 5 mM EDTA, 200 mM NaCl, 0.005% Brij35 • c. Substrates: • Cathepsin L: 6,25 µM Z-Phe-Arg-7-amino-4-methylcumarin, HCl von Bachem, Ex 380 nm, Em 460 nm • Cathepsin B: 100 µM Z-Phe-Arg-7-amino-4-methylcumarin, HCl von Bachem, Ex 380 nm, Em 460 nm • Rhodesain: 10µM Z-Phe-Arg-7-amino-4-methylcumarin, HCl von Bachem, Ex 380 nm, Em 460 nm • Falcipain 2: 25µM Z-Phe-Arg-7-amino-4-methylcumarin, HCl von Bachem, Ex 380 nm, Em 460 nm • Reference substance(s)/positive control(s): E64 • d. Solvent for inhibitors and substrates: DMSO 99,5% (GC) DC4540, Sigma • e. Measurement device: Tecan Fluorescence spectrophotometer infinite F200 Pro • f. Well plates: 96 well plates, Lia-Plate White, Greiner bio-one, flat bottom, high binding • g. Methodology: Substrates and inhibitor stock solutions are prepared in DMSO and diluted with the respective assay buffer (final DMSO concentration: […]). Enzyme stock solutions are diluted with assay buffer to yield a fluorescence increase of dF/min ≈ _20. Total volume: 200 µL (180 µL of assay buffer, 5 µL of enzyme solution, 10 µL of DMSO or inhibitor solution, 5 µL of substrate solution). Assays are started by the addition of substrate solution. Fluorescence increase is detected over a period of 10 - 30 min, depending on time dependent (30 min) or non-time dependent (10 min) inhibition. • h. Temp: 25 °C • i. DATA-[…] • Software: Grafit 5.013 • Ki values are calculated from IC50 values (obtained by the 4-parameter IC50 equation) using the Chen-Prusoff equation: Ki=IC50/(1 + [S]/Km)\n(§4) In vitro inhibition of cysteine-proteases cruzain (CR) (Trypanosoma cruzi (T. cruzi)), rhodesain (RD) (T. brucei), cathepsin B (CB), falcipain (FP2) (Plasmodium falciparum) and cathepsin L (CL) was assessed by quantification of the resulting fluorescence emission of the proteolytic breakdown of synthetic compound Z-Phe-Arg-AMC (Bachem). The results of this determination are shown in tables 1 and 2 illustrated above."}, "[2]": {"biological_target": "T2, Cathepsin L (human) (Homo sapiens, UniProt P07711)", "T2 construct": "Cathepsin L (human liver) Calbiochem; purchased Calbiochem; host or cells: human liver (tissue-derived)", "T2 sequence (P07711 114-333)": "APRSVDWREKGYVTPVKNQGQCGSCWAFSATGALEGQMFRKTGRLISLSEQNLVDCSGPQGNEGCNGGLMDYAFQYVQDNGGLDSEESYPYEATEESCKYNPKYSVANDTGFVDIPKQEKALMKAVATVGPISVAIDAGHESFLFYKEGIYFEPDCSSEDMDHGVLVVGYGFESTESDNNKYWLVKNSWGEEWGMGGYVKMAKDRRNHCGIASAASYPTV", "test": "Protease assay, fluorogenic substrate Z-Phe-Arg-AMC: Cathepsin L", "format": "biochemical", "settings": "CL=CathepsinL", "description": "as §1, §2, §3, §4"}, "[3]": {"biological_target": "T3, Rhodesain (Trypanosoma brucei rhodesiense, UniProt Q95PM0)", "T3 construct": "made in house", "T3 sequence (Q95PM0 entry or part of it)": "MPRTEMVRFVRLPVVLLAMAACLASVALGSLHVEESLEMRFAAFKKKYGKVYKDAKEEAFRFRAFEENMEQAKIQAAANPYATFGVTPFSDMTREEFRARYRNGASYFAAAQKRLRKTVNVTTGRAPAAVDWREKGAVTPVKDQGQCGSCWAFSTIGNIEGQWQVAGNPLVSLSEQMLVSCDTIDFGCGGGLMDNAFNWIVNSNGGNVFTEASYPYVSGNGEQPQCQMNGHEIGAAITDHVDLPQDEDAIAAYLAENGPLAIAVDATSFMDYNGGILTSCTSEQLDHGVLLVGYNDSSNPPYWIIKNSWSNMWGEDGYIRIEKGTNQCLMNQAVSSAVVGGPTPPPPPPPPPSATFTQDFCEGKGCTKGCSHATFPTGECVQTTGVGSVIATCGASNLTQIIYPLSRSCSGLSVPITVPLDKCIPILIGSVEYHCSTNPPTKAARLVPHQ", "test": "Protease assay, fluorogenic substrate Z-Phe-Arg-AMC: Rhodesain", "format": "biochemical", "description": "as §1, §2, §3, §4"}, "[4]": {"biological_target": "cruzain (CR) (Trypanosoma cruzi, UniProt P25779)", "sequence (P25779 123-467)": "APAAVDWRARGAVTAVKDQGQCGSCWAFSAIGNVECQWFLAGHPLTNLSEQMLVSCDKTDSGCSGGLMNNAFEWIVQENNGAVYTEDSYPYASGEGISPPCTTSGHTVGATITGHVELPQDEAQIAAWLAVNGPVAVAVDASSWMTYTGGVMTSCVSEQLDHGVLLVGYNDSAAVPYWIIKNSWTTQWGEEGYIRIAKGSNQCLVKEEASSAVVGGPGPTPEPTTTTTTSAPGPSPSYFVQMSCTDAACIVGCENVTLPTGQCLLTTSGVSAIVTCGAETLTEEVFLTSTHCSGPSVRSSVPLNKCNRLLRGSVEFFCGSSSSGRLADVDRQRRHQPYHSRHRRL", "test": "In vitro inhibition of cruzain, fluorescence of Z-Phe-Arg-AMC breakdown", "format": "biochemical", "protocol": "as §2, §4"}, "[5]": {"system": "T. cruzi Tulahuen strain C2C4", "test": "Activity against T. cruzi in L-6 cells (beta-galactosidase, CPRG)", "format": "cell-based", "settings": "for IC50: Trypanosoma cruzi, TULAHUEN", "protocol": "(§5) For all the susceptibility assays with parasites and cells, each drug was tested in duplicate and each assay was repeated at least once. • a. Activity against Trypanosoma brucei rhodesiense STIB900. This stock was isolated in 1982 from a human patient in Tanzania and after several mouse passages cloned and adapted to axenic culture conditions (Baltz et al 1985) Minimum Essential Medium (50 µl) supplemented with 25 mM HEPES, 1g/l additional glucose, 1% MEM non-essential amino acids (100x), 0.2 mM 2-mercaptoethanol, 1 mM Na-pyruvate and 15% heat inactivated horse serum was added to each well of a 96-well microtiter plate. Serial drug dilutions of eleven 3-fold dilution steps covering a range from 100 to 0.002 µg/ml were prepared. Then 4x10^3 bloodstream forms of T. b. rhodesiense STIB 900 in 50 µl was added to each well and the plate incubated at 37 °C under a 5 % CO2 atmosphere for 70 h. 10 µl Alamar Blue (resazurin, 12.5 mg in 100 ml double-distilled water) was then added to each well and incubation continued for a further 2-4 h (Raz et al 1997). Then the plates were read with a Spectramax Gemini XS microplate fluorometer (Molecular Devices Cooperation, Sunnyvale, CA, USA) using an excitation wave length of 536 nm and an emission wave length of 588 nm. The IC50 values were calculated by linear regression (Huber 1993) from the sigmoidal dose inhibition curves using SoftmaxPro software (Molecular Devices Cooperation, Sunnyvale, CA, USA). Melarsoprol (Arsobal Sanofi-Aventis, received from WHO) is used as control. • b. Activity against T. cruzi. Rat skeletal myoblasts (L-6 cells) were seeded in 96-well microtitre plates at 2000 cells/well in 100 µL RPMI 1640 medium with 10% FBS and 2 mM I-glutamine. After 24 h the medium was removed and replaced by 100 µl per well containing 5000 trypomastigote forms of T. cruzi Tulahuen strain C2C4 containing the β-galactosidase (Lac Z) gene (Buckner et al. 1996). After 48 h the medium was removed from the wells and replaced by 100 µl fresh medium with or without a serial drug dilution of eleven 3-fold dilution steps covering a range from 100 to 0.002 µg/ml. After 96 h of incubation the plates were inspected under an inverted microscope to assure growth of the controls and sterility. Then the substrate CPRG/Nonidet (50 µl) was added to all wells. A color reaction developed within 2-6 h and could be read photometrically at 540 nm. Data were analyzed with the graphic programme Softmax Pro (Molecular Devices), which calculated IC50 values by linear regression (Huber 1993) from the sigmoidal dose inhibition curves. […] Activity against L. donovani axenic amastigotes. Amastigotes of L. donovani strain MHOM/ET/67/L82 were grown in axenic culture at 37 °C in SM medium (Cunnigham et al. 1977) at pH 5.4 supplemented with 10% heat-inactivated fetal bovine serum under an atmosphere of 5% CO2 in air. One hundred microlitres of culture medium with 10^5 amastigotes from axenic culture with or without a serial drug dilution were seeded in 96-well microtitre plates. Serial drug dilutions of eleven 3-fold dilution steps covering a range from 90 to 0.002 µg/ml were prepared. After 70 h of incubation the plates were inspected under an inverted microscope to assure growth of the controls and sterile conditions. 10 µl of Alamar Blue (12.5 mg resazurin dissolved in 100 ml distilled water) (Mikus and Steverdig. 2000) were then added to each well and the plates incubated for another 2 h. Then the plates were read with a Spectramax Gemini XS microplate fluorometer (Molecular Devices Cooperation, Sunnyvale, CA, USA) using an excitation wave length of 536 nm and an emission wave length of 588 nm. Data were analyzed using the software Softmax Pro (Molecular Devices Cooperation, Sunnyvale, CA, USA). Decrease of fluorescence (= inhibition) was expressed as percentage of the fluorescence of control cultures and plotted against the drug concentrations. From the sigmoidal inhibition curves the IC50 values were calculated. • d."}, "[6]": {"system": "P. falciparum NF54 strain", "test": "Activity against P. falciparum, 3H-hypoxanthine incorporation assay", "format": "cell-based", "settings": "for IC50: Plasmodium falciparum"}, "[7]": {"system": "Trypanosoma brucei rhodesiense STIB900", "test": "Activity against Trypanosoma brucei rhodesiense STIB900 (Alamar Blue)", "format": "cell-based", "settings": "for IC50: Trypanosoma brucei", "protocol": "as §5"}}, "note": "Read-outs that look alike come from different tables or passages of the source.", "data": [{"smiles": "CC(C)C[C@H](NC(=O)[C@H](Cc1ccccc1)NC(=O)OCc1ccccc1)C(=O)/C=C/S(=O)(=O)c1ccccc1", "values": [{"measurement": "CB(K2nd(M-1s-1))", "setting": "[1]", "value": 82248, "unit": "M⁻¹ s⁻¹"}, {"measurement": "IC50", "setting": "[1]; read-out: CBIC50micM, 25 °C, pH 6.5, 100 µM substrate", "value": 50, "unit": "nM"}, {"measurement": "CL(K2nd(M-1s-1))", "setting": "[2]", "value": 383272, "unit": "M⁻¹ s⁻¹"}, {"measurement": "IC50", "setting": "[2]; read-out: CL(IC50), 25 °C, pH 6.5, 6,25 µM substrate", "value": 9.95, "unit": "nM"}, {"measurement": "RD(K2nd(M-1s-1))", "setting": "[3]", "value": 1361750, "unit": "M⁻¹ s⁻¹"}, {"measurement": "IC50", "setting": "[3]; RD=Rhodesain, 25 °C, pH 5.5, 10µM substrate", "value": 6, "unit": "nM"}, {"measurement": "CR(K2nd(M-1s-1))", "setting": "[4]", "value": 709411, "unit": "M⁻¹ s⁻¹"}, {"measurement": "IC50", "setting": "[4]", "value": 11.1, "unit": "nM"}]}, {"smiles": "CCOC(=O)C=CC(O)C(CCc1ccccc1)NC(=O)C(Cc1ccccc1)NC(=O)OCc1ccccc1", "note": "(single isomer, unassigned)", "values": [{"measurement": "CB(K2nd(M-1s-1))", "setting": "[1]", "value": 14, "unit": "M⁻¹ s⁻¹"}, {"measurement": "CL(K2nd(M-1s-1))", "setting": "[2]", "value": 77, "unit": "M⁻¹ s⁻¹"}]}, {"smiles": "O=C(Cn1ccnc1[N+](=O)[O-])NCc1ccccc1", "note": "[Benznidazole]", "values": [{"measurement": "IC50", "setting": "[5]; L6, 96 h, replicate 1, L-6 cells, 96 h, read-out: T.cruzi. IC50 repl1", "value": 657, "unit": "ng/mL"}, {"measurement": "IC50", "setting": "[5]; L6, 96 h, replicate 2, L-6 cells, 96 h, read-out: T.cruzi. IC50 repl2", "value": 522, "unit": "ng/mL"}, {"measurement": "IC50", "setting": "[5]; L6, control value stated in the method text", "value": "500 ± 200", "unit": "ng/mL"}, {"measurement": "IC50", "setting": "[5]; L6, mean of replicates, read-out: T.cruzi. IC50 mean", "value": 590, "unit": "ng/mL"}, {"measurement": "T.cruzi. IC50 mean", "setting": "[5]; mean of replicates", "value": "0,516 micrograms/mL"}, {"measurement": "T.cruzi. IC50 repl1", "setting": "[5]; replicate 1, L-6 cells, 96 h", "value": "0,367 micrograms/mL"}, {"measurement": "T.cruzi. IC50 repl2", "setting": "[5]; replicate 2, L-6 cells, 96 h", "value": "0,664 micrograms/mL"}]}, {"smiles": "CCN(CC)CCCC(C)Nc1ccnc2cc(Cl)ccc12", "note": "(stereo not drawn) [Chloroquine, reference compound]", "values": [{"measurement": "IC50", "setting": "[6]; NF54, read-out: P.falc NF54 IC50 mean, mean of replicates", "value": 3, "unit": "ng/mL"}, {"measurement": "IC50", "setting": "[6]; NF54, read-out: P.falc NF54 IC50 repl1, replicate 1, erythrocytic stages, NF54", "value": 3, "unit": "ng/mL"}, {"measurement": "IC50", "setting": "[6]; NF54, read-out: P.falc NF54 IC50 repl2, replicate 2, erythrocytic stages, NF54", "value": 2, "unit": "ng/mL"}, {"measurement": "P.falc NF54 IC50 repl1", "setting": "[6]; replicate 1, erythrocytic stages, NF54", "value": "0,002 micrograms/mL"}]}, {"smiles": "Nc1nc(N)nc(Nc2ccc([As]3SCC(CO)S3)cc2)n1", "note": "(stereo not drawn) [Melarsoprol, reference compound]", "values": [{"measurement": "IC50", "setting": "[7]; 70 h, read-out: T.b.rhod. IC50 repl1, replicate 1, bloodstream forms, 70 h", "value": 5, "unit": "ng/mL"}, {"measurement": "IC50", "setting": "[7]; 70 h, read-out: T.b.rhod. IC50 repl2, replicate 2, bloodstream forms, 70 h", "value": 2, "unit": "ng/mL"}, {"measurement": "IC50", "setting": "[7]; read-out: T.b.rhod. IC50 mean, mean of replicates", "value": 3, "unit": "ng/mL"}, {"measurement": "T.b.rhod. IC50 mean", "setting": "[7]; mean of replicates", "value": "0,004 micrograms/mL"}, {"measurement": "T.b.rhod. IC50 repl1", "setting": "[7]; replicate 1, bloodstream forms, 70 h", "value": "0,003 micrograms/mL"}, {"measurement": "T.b.rhod. IC50 repl2", "setting": "[7]; replicate 2, bloodstream forms, 70 h", "value": "0,004 micrograms/mL"}]}]}
